Experiments:
[1] = molecular target: ANKK1 (Homo sapiens (Human), UniProt Q8NFD2); test: KINOMEscan scanMAX; assay type: binding; conditions: 2000 nM; read-out: Percent Control
[2] = molecular target: PRKG1 (Homo sapiens (Human), UniProt Q13976); test: KINOMEscan scanMAX; assay type: binding; conditions: 2000 nM; read-out: Percent Control
[3] = molecular target: EGFR(L747-S752del, P753S) (Homo sapiens (Human), UniProt P00533, DEL747-752/P753S); test: KINOMEscan scanMAX; assay type: binding; conditions: 2000 nM; read-out: Percent Control
[4] = tested on: NFκB-dependent promoter in CDK8/19 deficient (double-knockout) reporter cells; test: NFκB-dependent luciferase reporter assay, CDK8/19 double-knockout vs wild-type 293 cells; conditions: double-knockout vs parental reporter cells
Excerpt: The second cell-based assay measures the effects of CDK8/19 on the expression of firefly luciferase reporter from a NFκB-dependent promoter in 293 cells.

[5] = molecular target: PIK3CA(E545K) (Homo sapiens (Human), UniProt P42336, E545K); test: KINOMEscan scanMAX; assay type: binding; conditions: 2000 nM; read-out: Percent Control
[6] = molecular target: ADCK3 (CABC1) (Homo sapiens (Human), UniProt Q8NI60); test: KINOMEscan scanMAX; assay type: binding; conditions: 2000 nM; read-out: Percent Control
[7] = molecular target: ERBB2 (Homo sapiens (Human), UniProt P04626); test: KINOMEscan scanMAX; assay type: binding; conditions: 2000 nM; read-out: Percent Control
[8] = molecular target: INSRR (Homo sapiens (Human), UniProt P14616); test: KINOMEscan scanMAX; assay type: binding; conditions: 2000 nM; read-out: Percent Control
[9] = molecular target: WNK1 (Homo sapiens (Human), UniProt Q9H4A3); test: KINOMEscan scanMAX; assay type: binding; conditions: 2000 nM; read-out: Percent Control
[10] = molecular target: FGFR3 (Homo sapiens (Human), UniProt P22607); test: KINOMEscan scanMAX; assay type: binding; conditions: 2000 nM; read-out: Percent Control
[11] = molecular target: RSK1(Kin.Dom.1-N-terminal) (RPS6KA1) (Homo sapiens (Human), UniProt Q15418); test: KINOMEscan scanMAX; assay type: binding; conditions: 2000 nM; read-out: Percent Control
[12] = molecular target: KIT(D816V) (Homo sapiens (Human), UniProt P10721, D816V); test: KINOMEscan scanMAX; assay type: binding; conditions: 2000 nM; read-out: Percent Control
[13] = molecular target: AURKC (Homo sapiens (Human), UniProt Q9UQB9); test: KINOMEscan scanMAX; assay type: binding; conditions: 2000 nM; read-out: Percent Control
[14] = molecular target: MINK (MINK1) (Homo sapiens (Human), UniProt Q8N4C8); test: KINOMEscan scanMAX; assay type: binding; conditions: 2000 nM; read-out: Percent Control
[15] = molecular target: PIP5K1C (Homo sapiens (Human), UniProt O60331); test: KINOMEscan scanMAX; assay type: binding; conditions: 2000 nM; read-out: Percent Control
[16] = molecular target: PIK3CA(M1043I) (Homo sapiens (Human), UniProt P42336, M1043I); test: KINOMEscan scanMAX; assay type: binding; conditions: 2000 nM; read-out: Percent Control
[17] = molecular target: BTK (Homo sapiens (Human), UniProt Q06187); test: KINOMEscan scanMAX; assay type: binding; conditions: 2000 nM; read-out: Percent Control
[18] = molecular target: LATS2 (Homo sapiens (Human), UniProt Q9NRM7); test: KINOMEscan scanMAX; assay type: binding; conditions: 2000 nM; read-out: Percent Control
[19] = molecular target: FLT3(D835Y) (Homo sapiens (Human), UniProt P36888, D835Y); test: KINOMEscan scanMAX; assay type: binding; conditions: 2000 nM; read-out: Percent Control
[20] = molecular target: ACVR1 (Homo sapiens (Human), UniProt Q04771); test: KINOMEscan scanMAX; assay type: binding; conditions: 2000 nM; read-out: Percent Control
[21] = molecular target: MET (Homo sapiens (Human), UniProt P08581); test: KINOMEscan scanMAX; assay type: binding; conditions: 2000 nM; read-out: Percent Control
[22] = molecular target: NLK (Homo sapiens (Human), UniProt Q9UBE8); test: KINOMEscan scanMAX; assay type: binding; conditions: 2000 nM; read-out: Percent Control
[23] = molecular target: MARK3 (Homo sapiens (Human), UniProt P27448); test: KINOMEscan scanMAX; assay type: binding; conditions: 2000 nM; read-out: Percent Control
[24] = molecular target: WNK2 (Homo sapiens (Human), UniProt Q9Y3S1); test: KINOMEscan scanMAX; assay type: binding; conditions: 2000 nM; read-out: Percent Control
[25] = molecular target: ERK2 (MAPK1) (Homo sapiens (Human), UniProt P28482); test: KINOMEscan scanMAX; assay type: binding; conditions: 2000 nM; read-out: Percent Control
[26] = molecular target: BUB1 (Homo sapiens (Human), UniProt O43683); test: KINOMEscan scanMAX; assay type: binding; conditions: 2000 nM; read-out: Percent Control
[27] = molecular target: CAMKK2 (Homo sapiens (Human), UniProt Q96RR4); test: KINOMEscan scanMAX; assay type: binding; conditions: 2000 nM; read-out: Percent Control
[28] = molecular target: MYLK (Homo sapiens (Human), UniProt Q15746); test: KINOMEscan scanMAX; assay type: binding; conditions: 2000 nM; read-out: Percent Control
[29] = molecular target: PAK1 (Homo sapiens (Human), UniProt Q13153); test: KINOMEscan scanMAX; assay type: binding; conditions: 2000 nM; read-out: Percent Control
[30] = molecular target: CAMK2A (Homo sapiens (Human), UniProt Q9UQM7); test: KINOMEscan scanMAX; assay type: binding; conditions: 2000 nM; read-out: Percent Control
[31] = molecular target: ERN1 (Homo sapiens (Human), UniProt O75460); test: KINOMEscan scanMAX; assay type: binding; conditions: 2000 nM; read-out: Percent Control
[32] = molecular target: SGK (SGK1) (Homo sapiens (Human), UniProt O00141); test: KINOMEscan scanMAX; assay type: binding; conditions: 2000 nM; read-out: Percent Control
[33] = molecular target: ICK (Homo sapiens (Human), UniProt Q9UPZ9); test: KINOMEscan scanMAX; assay type: binding; conditions: 2000 nM; read-out: Percent Control
[34] = tested on: C4-2 xenografts; test: PSA mRNA in C4-2 xenografts in mice; assay type: in vivo; conditions: 40 mg/kg orally daily for 4 days, male NcrNU mice
Procedure: CDK8/19 inhibition decreases the expression of certain androgen-receptor (AR) inducible genes including PSA, the most common marker of prostate cancer, and the growth of castration-refractory prostate cancers (CRPC). The in vivo effects of Senexin C on PSA expression by C4-2 cells were analyzed after treatment of male NcrNU mice bearing C4-2 xenografts (grouped based on tumor sizes) for 4 days at 40 mg/kg administered orally daily.

[35] = molecular target: AAK1 (Homo sapiens (Human), UniProt Q2M2I8); test: KINOMEscan scanMAX; assay type: binding; conditions: 2000 nM; read-out: Percent Control
[36] = molecular target: SRC (Homo sapiens (Human), UniProt P12931); test: KINOMEscan scanMAX; assay type: binding; conditions: 2000 nM; read-out: Percent Control
[37] = molecular target: CAMK2B (Homo sapiens (Human), UniProt Q13554); test: KINOMEscan scanMAX; assay type: binding; conditions: 2000 nM; read-out: Percent Control

Chain of MINK (MINK1) (Q8N4C8 whole entry): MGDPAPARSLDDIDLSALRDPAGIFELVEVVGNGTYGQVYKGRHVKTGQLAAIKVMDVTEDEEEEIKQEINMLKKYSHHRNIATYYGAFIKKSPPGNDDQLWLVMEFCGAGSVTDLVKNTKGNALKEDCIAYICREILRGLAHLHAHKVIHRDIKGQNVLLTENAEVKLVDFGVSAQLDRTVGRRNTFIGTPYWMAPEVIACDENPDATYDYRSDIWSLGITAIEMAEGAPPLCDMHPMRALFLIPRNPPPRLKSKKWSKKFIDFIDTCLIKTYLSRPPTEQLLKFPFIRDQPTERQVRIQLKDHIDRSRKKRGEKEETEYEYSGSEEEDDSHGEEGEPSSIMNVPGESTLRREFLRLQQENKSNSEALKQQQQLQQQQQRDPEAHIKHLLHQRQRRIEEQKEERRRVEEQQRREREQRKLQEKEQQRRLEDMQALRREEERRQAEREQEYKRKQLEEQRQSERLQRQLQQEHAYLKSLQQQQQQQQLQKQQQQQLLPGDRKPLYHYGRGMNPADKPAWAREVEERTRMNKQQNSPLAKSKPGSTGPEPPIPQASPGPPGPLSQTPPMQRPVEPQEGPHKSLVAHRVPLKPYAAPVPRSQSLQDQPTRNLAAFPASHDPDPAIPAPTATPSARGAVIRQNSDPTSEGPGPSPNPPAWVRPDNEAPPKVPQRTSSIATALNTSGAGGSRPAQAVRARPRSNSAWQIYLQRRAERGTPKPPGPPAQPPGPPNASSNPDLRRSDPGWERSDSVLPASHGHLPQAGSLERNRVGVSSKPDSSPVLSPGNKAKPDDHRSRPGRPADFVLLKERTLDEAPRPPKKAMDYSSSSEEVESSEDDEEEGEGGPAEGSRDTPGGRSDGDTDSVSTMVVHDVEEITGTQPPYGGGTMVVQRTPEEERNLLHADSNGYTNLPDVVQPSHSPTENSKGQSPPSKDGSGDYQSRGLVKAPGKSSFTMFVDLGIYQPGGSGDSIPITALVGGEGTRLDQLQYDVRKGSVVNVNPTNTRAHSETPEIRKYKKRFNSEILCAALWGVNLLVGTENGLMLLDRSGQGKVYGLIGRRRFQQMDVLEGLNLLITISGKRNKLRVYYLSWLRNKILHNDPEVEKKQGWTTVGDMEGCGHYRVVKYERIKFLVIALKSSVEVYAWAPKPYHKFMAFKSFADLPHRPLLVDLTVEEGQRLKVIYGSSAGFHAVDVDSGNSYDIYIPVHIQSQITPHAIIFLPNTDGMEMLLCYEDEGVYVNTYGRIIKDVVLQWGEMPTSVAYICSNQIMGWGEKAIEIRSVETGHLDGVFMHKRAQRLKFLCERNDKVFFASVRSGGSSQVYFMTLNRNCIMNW
Chain of PIK3CA(M1043I) (P42336 whole entry M1043I): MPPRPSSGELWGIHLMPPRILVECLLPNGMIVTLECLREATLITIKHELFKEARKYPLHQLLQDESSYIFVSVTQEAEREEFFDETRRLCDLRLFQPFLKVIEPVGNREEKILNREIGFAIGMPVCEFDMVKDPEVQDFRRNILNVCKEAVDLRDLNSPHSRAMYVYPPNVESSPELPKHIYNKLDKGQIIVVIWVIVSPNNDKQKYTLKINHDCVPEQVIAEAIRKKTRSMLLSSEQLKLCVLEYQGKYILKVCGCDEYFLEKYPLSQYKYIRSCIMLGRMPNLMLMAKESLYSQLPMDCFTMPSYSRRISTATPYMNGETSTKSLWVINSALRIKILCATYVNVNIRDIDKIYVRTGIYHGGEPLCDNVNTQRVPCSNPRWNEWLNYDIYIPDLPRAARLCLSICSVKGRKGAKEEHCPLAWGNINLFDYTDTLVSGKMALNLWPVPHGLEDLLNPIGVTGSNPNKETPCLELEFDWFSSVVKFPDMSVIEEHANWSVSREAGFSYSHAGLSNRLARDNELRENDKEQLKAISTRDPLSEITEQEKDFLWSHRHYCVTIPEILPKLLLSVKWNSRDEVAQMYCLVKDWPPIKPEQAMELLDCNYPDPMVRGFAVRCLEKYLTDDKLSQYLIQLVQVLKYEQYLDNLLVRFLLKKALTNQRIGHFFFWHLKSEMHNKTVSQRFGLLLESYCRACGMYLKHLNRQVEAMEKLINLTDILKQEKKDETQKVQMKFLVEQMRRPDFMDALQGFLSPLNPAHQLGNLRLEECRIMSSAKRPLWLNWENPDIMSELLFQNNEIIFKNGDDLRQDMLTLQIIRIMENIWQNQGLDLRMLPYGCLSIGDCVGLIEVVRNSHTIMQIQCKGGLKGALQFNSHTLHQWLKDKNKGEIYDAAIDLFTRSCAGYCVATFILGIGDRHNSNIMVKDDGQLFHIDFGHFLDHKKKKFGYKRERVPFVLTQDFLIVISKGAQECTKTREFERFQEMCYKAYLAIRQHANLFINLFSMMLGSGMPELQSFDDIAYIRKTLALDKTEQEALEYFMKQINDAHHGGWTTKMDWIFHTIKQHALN
Chain of CAMK2A (Q9UQM7 whole entry): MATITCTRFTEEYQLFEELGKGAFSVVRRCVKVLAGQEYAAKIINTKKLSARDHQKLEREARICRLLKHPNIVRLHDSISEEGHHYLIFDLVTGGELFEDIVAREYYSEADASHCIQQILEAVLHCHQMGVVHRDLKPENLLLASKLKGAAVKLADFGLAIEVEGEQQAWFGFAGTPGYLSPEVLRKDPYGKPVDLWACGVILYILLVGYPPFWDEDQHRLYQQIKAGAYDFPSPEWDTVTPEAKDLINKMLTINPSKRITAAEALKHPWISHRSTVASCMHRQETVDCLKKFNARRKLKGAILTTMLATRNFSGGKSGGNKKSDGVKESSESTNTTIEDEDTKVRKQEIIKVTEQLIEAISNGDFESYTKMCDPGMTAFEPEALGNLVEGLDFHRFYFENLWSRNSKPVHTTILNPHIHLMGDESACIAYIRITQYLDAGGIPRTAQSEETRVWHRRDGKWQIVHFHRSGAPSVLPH
Chain of SRC (P12931 whole entry, looked up): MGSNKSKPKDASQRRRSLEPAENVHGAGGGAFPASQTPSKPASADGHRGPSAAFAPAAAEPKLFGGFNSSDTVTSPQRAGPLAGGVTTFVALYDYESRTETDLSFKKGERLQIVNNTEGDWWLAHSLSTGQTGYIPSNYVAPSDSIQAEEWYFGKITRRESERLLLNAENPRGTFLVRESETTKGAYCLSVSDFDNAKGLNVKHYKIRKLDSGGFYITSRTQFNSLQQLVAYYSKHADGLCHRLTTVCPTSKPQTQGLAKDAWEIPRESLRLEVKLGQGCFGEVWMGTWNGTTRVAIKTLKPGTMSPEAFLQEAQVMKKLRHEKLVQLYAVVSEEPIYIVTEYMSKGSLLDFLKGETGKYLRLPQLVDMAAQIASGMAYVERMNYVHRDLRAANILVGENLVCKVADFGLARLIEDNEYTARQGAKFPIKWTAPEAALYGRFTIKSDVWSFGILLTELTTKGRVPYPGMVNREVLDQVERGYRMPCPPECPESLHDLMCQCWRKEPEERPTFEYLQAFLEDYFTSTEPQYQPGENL
Chain of EGFR(L747-S752del, P753S) (P00533 other isoform, or with tags, fused parts or gaps P753S/del L747-S752): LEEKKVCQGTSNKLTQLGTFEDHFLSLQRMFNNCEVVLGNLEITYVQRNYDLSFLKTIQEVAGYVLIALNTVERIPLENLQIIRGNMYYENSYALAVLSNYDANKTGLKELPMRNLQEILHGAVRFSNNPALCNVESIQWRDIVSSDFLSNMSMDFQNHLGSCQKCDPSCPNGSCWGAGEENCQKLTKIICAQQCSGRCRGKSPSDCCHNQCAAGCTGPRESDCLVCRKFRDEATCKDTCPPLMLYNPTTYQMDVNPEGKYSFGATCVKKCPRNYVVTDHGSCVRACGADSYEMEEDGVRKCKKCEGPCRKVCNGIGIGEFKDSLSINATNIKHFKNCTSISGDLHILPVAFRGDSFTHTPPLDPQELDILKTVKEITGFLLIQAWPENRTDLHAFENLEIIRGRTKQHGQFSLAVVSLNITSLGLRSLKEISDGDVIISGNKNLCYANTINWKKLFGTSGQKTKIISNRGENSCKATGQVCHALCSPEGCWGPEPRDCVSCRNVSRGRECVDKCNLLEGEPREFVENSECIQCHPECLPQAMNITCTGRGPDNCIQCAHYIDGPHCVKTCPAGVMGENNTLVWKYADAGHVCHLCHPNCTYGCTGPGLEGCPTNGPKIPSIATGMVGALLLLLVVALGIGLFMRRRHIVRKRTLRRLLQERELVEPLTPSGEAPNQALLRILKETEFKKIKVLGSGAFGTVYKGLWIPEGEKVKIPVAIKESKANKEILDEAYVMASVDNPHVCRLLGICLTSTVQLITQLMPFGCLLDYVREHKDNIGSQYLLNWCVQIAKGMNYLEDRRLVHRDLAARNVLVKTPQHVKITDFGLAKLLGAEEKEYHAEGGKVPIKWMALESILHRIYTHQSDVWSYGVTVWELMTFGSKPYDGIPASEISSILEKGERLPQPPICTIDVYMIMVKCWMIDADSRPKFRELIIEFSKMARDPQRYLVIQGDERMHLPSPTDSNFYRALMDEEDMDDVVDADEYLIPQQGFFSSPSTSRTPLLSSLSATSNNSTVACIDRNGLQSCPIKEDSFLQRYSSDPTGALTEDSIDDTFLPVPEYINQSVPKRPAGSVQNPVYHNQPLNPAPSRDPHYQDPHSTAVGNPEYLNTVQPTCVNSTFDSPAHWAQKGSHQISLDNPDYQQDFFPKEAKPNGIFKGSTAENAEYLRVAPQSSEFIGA
Chain of ADCK3 (CABC1) (Q8NI60 163-647): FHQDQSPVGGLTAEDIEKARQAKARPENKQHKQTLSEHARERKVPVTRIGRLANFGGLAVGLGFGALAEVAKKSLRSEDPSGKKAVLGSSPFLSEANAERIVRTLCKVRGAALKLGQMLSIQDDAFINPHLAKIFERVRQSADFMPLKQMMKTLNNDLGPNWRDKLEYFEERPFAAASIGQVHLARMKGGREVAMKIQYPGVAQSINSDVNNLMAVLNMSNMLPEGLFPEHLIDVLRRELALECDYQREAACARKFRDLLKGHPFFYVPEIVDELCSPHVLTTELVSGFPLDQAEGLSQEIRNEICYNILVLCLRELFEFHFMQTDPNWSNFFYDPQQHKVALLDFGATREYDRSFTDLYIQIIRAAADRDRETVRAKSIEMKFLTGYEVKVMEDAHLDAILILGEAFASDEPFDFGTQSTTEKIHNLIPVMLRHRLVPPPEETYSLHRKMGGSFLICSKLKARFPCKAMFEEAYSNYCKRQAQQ

CN1CCN(C(=O)c2ccc3cc(CCNc4ccnc5ccc(C#N)cc45)ccc3c2)CC1 [compound 6148, 4-((2-(6-(4-methylpiperazine-1-carbonyl)naphthalen-2-yl)ethyl)amino)quinoline-6-carbonitrile]
remaining binding at 2 µM [1]: 69%
remaining binding at 2 µM [2]: 100%
remaining binding at 2 µM [3]: 98%
IC50 in CDK8/19-deficient cells relative to wild-type cells [4]: > 50 times
remaining binding at 2 µM [5]: 55%
remaining binding at 2 µM [6]: 100%
remaining binding at 2 µM [7]: 73%
remaining binding at 2 µM [8]: 88%
remaining binding at 2 µM [9]: 72%
remaining binding at 2 µM [10]: 100%
remaining binding at 2 µM [11]: 91%
remaining binding at 2 µM [12]: 100%
remaining binding at 2 µM [13]: 100%
remaining binding at 2 µM [14]: 56%
remaining binding at 2 µM [15]: 87%
remaining binding at 2 µM [16]: 80%
remaining binding at 2 µM [17]: 78%
remaining binding at 2 µM [18]: 88%
remaining binding at 2 µM [19]: 73%
remaining binding at 2 µM [20]: 92%
remaining binding at 2 µM [21]: 90%
remaining binding at 2 µM [22]: 90%
remaining binding at 2 µM [23]: 94%
remaining binding at 2 µM [24]: 59%
remaining binding at 2 µM [25]: 93%
remaining binding at 2 µM [26]: 68%
remaining binding at 2 µM [27]: 82%
remaining binding at 2 µM [28]: 83%
remaining binding at 2 µM [29]: 92%
remaining binding at 2 µM [30]: 100%
remaining binding at 2 µM [31]: 58%
remaining binding at 2 µM [32]: 50%
remaining binding at 2 µM [33]: 54%
PSA mRNA levels in the tumor [34]: strongly decreased
remaining binding at 2 µM [35]: 84%
remaining binding at 2 µM [36]: 92%
remaining binding at 2 µM [37]: 97%
